PubChem BioAssay (NCI)
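The compound was tested at five concentrations on cells cultured in 96-well plates, with a 48-hour exposure period. TGI: total growth inhibition.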

Columns and labels:
Experiment in all cases: growth of human tumour cells (NCI), 48 h
SNB-19 CNS = tested on: SNB-19 CNS
IGROV1 ovarian = tested on: IGROV1 ovarian
KM12 colon = tested on: KM12 colon
SN12C renal = tested on: SN12C renal
OVCAR-5 ovarian = tested on: OVCAR-5 ovarian
OVCAR-8 ovarian = tested on: OVCAR-8 ovarian
HL-60(TB) leukemia = tested on: HL-60(TB) leukemia
RPMI-8226 leukemia = tested on: RPMI-8226 leukemia
LOX IMVI melanoma = tested on: LOX IMVI melanoma
SK-MEL-28 melanoma = tested on: SK-MEL-28 melanoma

Compound | TGI (SNB-19 CNS) [µM] | TGI (IGROV1 ovarian) [µM] | TGI (KM12 colon) [µM] | TGI (SN12C renal) [µM] | TGI (OVCAR-5 ovarian) [µM] | TGI (OVCAR-8 ovarian) [µM] | TGI (HL-60(TB) leukemia) [µM] | TGI (RPMI-8226 leukemia) [µM] | TGI (LOX IMVI melanoma) [µM] | TGI (SK-MEL-28 melanoma) [µM]
c1ccc(-c2cc(-c3cc(-c4ccccc4)n[nH]3)[nH]n2)cc1 | > 100 | > 100 | > 100 | > 100 | > 100 | > 100 | – | – | – | –
N#Cc1nsnc1-c1nc(-c2nsnc2C#N)nc(-c2nsnc2C#N)n1 | > 100 | > 100 | > 100 | > 100 | > 100 | > 100 | > 100 | > 100 | > 100 | > 100
CC(C)(C)OC(=O)/C=C/C(=O)O/C=C/[N+](=O)[O-] | – | > 100 | > 100 | > 100 | > 100 | > 100 | – | > 100 | > 100 | –
c1ccc2c(Cc3c[nH]c4ccccc34)c[nH]c2c1 | 44.4 | 30.7 | 40.5 | 31.7 | 29.4 | 42.8 | 33.4 | 68.8 | 49.8 | > 100
Nc1ccccc1Sc1ccc(Cl)cc1 | – | > 100 | > 100 | 56.1 | > 100 | > 100 | 53.3 | 67.9 | > 100 | 64
O=[N+]([O-])C(=C/C1CCCCC1)/C(=C\C1CCCCC1)[N+](=O)[O-] | 35.7 | 20.6 | 29.8 | 11.5 | 38.8 | > 27.3 | – | 5.4 | 4.94 | 24.7
O=C1CNc2cc(N3CCN(c4cccc(C(F)(F)F)c4)CC3)ccc2N1 | > 100 | > 100 | > 100 | > 100 | > 100 | > 100 | > 83.5 | > 67.5 | > 100 | > 100
O=C(c1ccc(Cl)cc1)N(C(=S)N1CCN(c2ccccc2)CC1)c1ccccc1 | > 100 | > 100 | > 100 | > 100 | > 100 | > 100 | > 100 | > 100 | > 100 | > 100
CCO[C@H]1C[C@@H](c2ccccc2)[C@]2(C)C[C@H](C(=O)OC)ON2O1 | > 100 | > 100 | > 100 | > 100 | > 100 | > 100 | > 100 | > 100 | > 100 | > 100
Cc1ccc(N2C(=O)CC(=O)N(NC(=O)C(C)Oc3ccccc3C)C2=S)cc1 (stereo not given) | > 100 | > 100 | > 100 | > 100 | > 100 | > 100 | > 100 | > 100 | > 100 | > 100
C=C(Br)C(Cl)(CBr)CCC(Br)C(C)(C)Cl (stereo not given) | > 10 | > 10 | > 10 | > 10 | > 10 | > 10 | > 10 | > 10 | – | > 10
FC(F)(F)C1(C(F)(F)F)OC(Cl)(Cl)C(Cl)(Cl)O1 | > 10 | > 10 | > 10 | – | > 10 | > 10 | – | – | > 10 | > 10
O=C(CN=C(CN(c1ccccc1)c1ccccc1)Oc1c([N+](=O)[O-])cc([N+](=O)[O-])cc1[N+](=O)[O-])N1CCNCC1 | > 100 | > 100 | > 100 | > 100 | > 100 | > 100 | > 100 | > 100 | – | > 100
Cc1[nH]n(-c2nc(O)c(C)c(=O)[nH]2)c(=O)c1CCO | > 100 | > 100 | > 100 | > 100 | > 100 | > 100 | > 100 | > 100 | – | > 100
OCCCN(CCc1ccc(Cl)c(Cl)c1)CCN1CCCC1 | > 100 | > 100 | > 100 | > 100 | > 100 | > 100 | > 100 | 70.6 | > 100 | –
C(/C=N/NC1=NCCN1)=N\NC1=NCCN1 | > 100 | > 100 | > 100 | – | > 100 | > 100 | 34.2 | > 100 | > 100 | > 100
CC1=CC[C@H](C)C(C)(C)C1/C=C/C(C)=C/CC[C@@]1(CO)[C@H](CCCO)/C(=C(/C)C=O)CC[C@]1(C)O (stereo not given in full) | 21.4 | 24.7 | 9.63 | 19.1 | 38.2 | 32.9 | 7.79 | – | 15.7 | 23.7
O=C(O)c1cc2c(cc1S(=O)(=O)O)C1C(C3C2C2(Cl)C(Cl)=C(Cl)C3(Cl)C2(Cl)Cl)C2(Cl)C(Cl)=C(Cl)C1(Cl)C2(Cl)Cl (stereo not given) | > 100 | > 100 | > 100 | 46.4 | 70 | > 100 | 79.9 | > 100 | – | > 100
N#C[C@](CO)(NC(=O)OCc1ccccc1)C(F)F | > 100 | > 100 | > 100 | – | > 100 | > 100 | > 100 | > 100 | > 100 | > 100
Cc1ccc(NNc2cc(=O)[nH]c(=O)[nH]2)cc1Cl | > 100 | 27.6 | > 100 | > 100 | > 100 | – | 18.3 | 49.2 | 18.4 | 31.7
C=CCC1(O)c2cccc(O)c2C(=O)c2cccc(O)c21 (stereo not given) | – | > 100 | 85 | – | > 100 | > 100 | 34.2 | 76.1 | 30.9 | 84.7
COc1ccccc1/C=C1/Sc2scc(CC(=O)Nc3ccccc3)[n+]2C1=O | > 100 | > 100 | > 100 | > 100 | > 100 | > 100 | 47.1 | – | > 100 | > 100
CCOC(=O)c1cc2cc(CSc3ccccc3)ccc2oc1=O | > 100 | > 100 | > 100 | > 100 | > 100 | > 100 | – | > 100 | > 100 | > 100
